Source: ChEMBL document CHEMBL1151707, “Novel 3-phenylpropane-1,2-diamine derivates as inhibitors of aminopeptidase N (APN)” (Bioorg Med Chem, 2008)

Tests used:
Aminopeptidase N = molecular target: T1, Aminopeptidase N (Sus scrofa, UniProt P15145); assay: Inhibition of pig kidney microsome aminopeptidase N by UV-visible spectrophotometer
T1 sequence (P15145 whole entry): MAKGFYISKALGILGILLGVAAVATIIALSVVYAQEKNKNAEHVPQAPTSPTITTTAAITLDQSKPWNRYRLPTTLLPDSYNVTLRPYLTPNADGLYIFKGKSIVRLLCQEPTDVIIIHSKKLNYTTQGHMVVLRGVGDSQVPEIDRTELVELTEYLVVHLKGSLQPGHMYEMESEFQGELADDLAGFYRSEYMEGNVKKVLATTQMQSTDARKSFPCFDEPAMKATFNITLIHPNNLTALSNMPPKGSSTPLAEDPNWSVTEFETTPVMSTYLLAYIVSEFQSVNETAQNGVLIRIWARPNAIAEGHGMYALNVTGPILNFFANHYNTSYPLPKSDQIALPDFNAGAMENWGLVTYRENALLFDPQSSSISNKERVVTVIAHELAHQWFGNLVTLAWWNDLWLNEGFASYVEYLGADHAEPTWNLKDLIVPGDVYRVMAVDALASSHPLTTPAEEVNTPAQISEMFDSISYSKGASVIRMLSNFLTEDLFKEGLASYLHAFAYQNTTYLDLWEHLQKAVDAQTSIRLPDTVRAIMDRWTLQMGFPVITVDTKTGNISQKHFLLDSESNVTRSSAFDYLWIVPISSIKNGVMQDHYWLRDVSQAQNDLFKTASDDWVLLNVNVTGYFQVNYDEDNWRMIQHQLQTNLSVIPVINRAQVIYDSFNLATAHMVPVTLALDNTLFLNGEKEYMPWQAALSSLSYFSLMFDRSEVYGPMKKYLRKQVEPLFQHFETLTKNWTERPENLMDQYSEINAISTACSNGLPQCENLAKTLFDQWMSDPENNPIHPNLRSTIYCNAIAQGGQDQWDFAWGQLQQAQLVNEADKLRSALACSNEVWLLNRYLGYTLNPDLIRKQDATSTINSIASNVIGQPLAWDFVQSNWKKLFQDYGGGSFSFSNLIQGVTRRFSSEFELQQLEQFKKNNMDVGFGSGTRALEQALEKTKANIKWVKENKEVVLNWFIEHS

[1] = molecular target: 72 kDa type IV collagenase (Homo sapiens, UniProt P08253); assay: Inhibition of MMP2
HL-60 = assay: Antiproliferative activity against human HL-60 cells after 48 hrs by MTT assay; assay type: functional, cell-based; settings: HL-60, 48 h

Sequence of 72 kDa type IV collagenase (P08253 whole entry): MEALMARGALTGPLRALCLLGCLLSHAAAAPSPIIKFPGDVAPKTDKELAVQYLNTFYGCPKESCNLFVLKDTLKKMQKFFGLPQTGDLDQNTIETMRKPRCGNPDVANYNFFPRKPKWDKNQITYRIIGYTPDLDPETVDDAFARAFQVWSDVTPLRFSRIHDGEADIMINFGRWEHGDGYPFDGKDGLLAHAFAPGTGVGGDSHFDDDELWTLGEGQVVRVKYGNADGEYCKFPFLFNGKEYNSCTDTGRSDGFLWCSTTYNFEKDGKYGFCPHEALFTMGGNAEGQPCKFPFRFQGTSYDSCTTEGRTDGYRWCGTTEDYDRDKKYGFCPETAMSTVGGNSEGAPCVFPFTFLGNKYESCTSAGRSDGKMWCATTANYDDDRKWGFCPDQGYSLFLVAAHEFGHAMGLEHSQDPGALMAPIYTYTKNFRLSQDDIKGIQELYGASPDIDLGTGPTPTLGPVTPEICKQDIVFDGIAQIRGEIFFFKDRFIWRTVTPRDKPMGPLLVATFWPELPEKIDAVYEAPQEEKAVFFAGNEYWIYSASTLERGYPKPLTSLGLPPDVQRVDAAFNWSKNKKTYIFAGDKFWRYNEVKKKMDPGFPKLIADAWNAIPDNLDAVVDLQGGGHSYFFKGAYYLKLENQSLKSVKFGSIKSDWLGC

| Structure (SMILES) | IC50 (Aminopeptidase N) [µM] | IC50 [1] [µM] | IC50 (HL-60) [µM] |
| --- | --- | --- | --- |
| N[C@@H](CNC(=O)/C=C/c1ccc(O)c(O)c1)Cc1ccccc1 | 492 | 329 |  |
| CC(C)C[C@H](NC(=O)[C@@H](O)[C@H](N)Cc1ccccc1)C(=O)O [UBENIMEX] |  | 162 |  |
| N[C@@H](CNC(=O)Cc1ccccc1Nc1c(Cl)cccc1Cl)Cc1ccccc1 | > 1000 | > 1000 |  |
| N[C@@H](CNC(=O)CCc1ccccc1)Cc1ccccc1 | 290 | 547 |  |
| N[C@@H](CNC(=O)c1cc([N+](=O)[O-])cc([N+](=O)[O-])c1)Cc1ccccc1 | 204 | 101 |  |
| N[C@@H](CNC(=O)/C=C/c1ccccc1)Cc1ccccc1 | 596 | 211 |  |
| N[C@@H](CNC(=O)CCCc1ccccc1)Cc1ccccc1 | > 1000 | 221 |  |
| N[C@@H](CNC(=O)[C@H](Cc1ccccc1)NC(=O)[C@@H](N)Cc1ccccc1)Cc1ccccc1 | 15.5 | 183 | 630 |
| N[C@@H](CNC(=O)Cc1ccccc1)Cc1ccccc1 | > 1000 | 632 |  |

Next, values leading:

| IC50 (Aminopeptidase N) [µM] | IC50 [1] [µM] | IC50 (HL-60) [µM] | Structure (SMILES) |
| --- | --- | --- | --- |
| 119 | 112 |  | CSCC[C@H](N)C(=O)NC[C@H](N)Cc1ccccc1 |
| > 1000 | 802 |  | NC(=O)CC[C@H](N)C(=O)NC[C@H](N)Cc1ccccc1 |
| > 1000 | 23.5 |  | NCC(=O)NC[C@H](N)Cc1ccccc1 |
| 409 | 11.2 |  | NCCC(=O)NC[C@H](N)Cc1ccccc1 |
| 476 | 151 |  | CC(C)[C@H](N)C(=O)NC[C@H](N)Cc1ccccc1 |
| 33.7 | 202 |  | N[C@@H](CNC(=O)[C@@H](N)CO)Cc1ccccc1 |
| 50.5 | 219 |  | NCCC[C@H](N)C(=O)NC[C@H](N)Cc1ccccc1 |
| 21.1 | 78.8 | 1090 | N[C@@H](CNC(=O)[C@@H](N)CS)Cc1ccccc1 |
| 142 | 170 |  | CC(C)C[C@H](N)C(=O)NC[C@H](N)Cc1ccccc1 |
| > 1000 | 772 |  | C[C@H](N)C(=O)NC[C@H](N)Cc1ccccc1 |
| 164 | 99.7 |  | NCCCCCC(=O)NC[C@H](N)Cc1ccccc1 |
| 164 | 99.7 |  | NCCCC[C@H](N)C(=O)NC[C@H](N)Cc1ccccc1 |
